{
  "source": "paper PMC10058894",
  "about": "“Bioactive C21 Steroidal Glycosides from Euphorbia kansui Promoted HepG2 Cell Apoptosis via the Degradation of ATP1A1 and Inhibited Macrophage Polarization under Co-Cultivation” (Molecules, 2023)",
  "format_in_all_cases": "cell-based",
  "key": {"ROS in HepG2 cells": {"test_system": "ROS in HepG2 cells", "test": "H2DCFDA staining of ROS", "from_the_text": "The occurrence of apoptosis is characterized by morphological events and the activation of apoptotic signaling pathways. Herein, we detected the apoptosis events of HepG2 cells by fluorescence staining and Western blotting. […] Apoptosis-related proteins, such as Bax, cleaved caspase 3, and cleaved caspase 8, were increased, and Bcl-2 was decreased (Figure 2B).\nFigure 2 Compound 5 promoted the apoptosis of HepG2 cells. (A) Fluorescence image of cell apoptosis in HepG2 cells. The cells were double stained with Annexin V and PI. Early apoptotic cells were stained with Annexin V, and late apoptotic cells were stained with PI. (B) HepG2 cells were treated with Compound 5 (25 μmol∙L^−1) for 24 h, and the protein expression was detected by western blot. (C) Fluorescence image of ROS in HepG2 cells. (D) HepG2 cells were treated with Compound 5 (25 μmol∙L^−1) for 24 h, and autophagy-related protein expression and AKT/mTOR were detected by western blotting. Data are expressed as the mean ± standard deviation. * p < 0.05, ** p < 0.01, *** p < 0.001 vs. the control group."}, "[1]": {"test": "MTT assay, cell viability of RAW264.7 cells", "details": "mouse, half inhibitory of RAW264.7 cells", "description": "HepG2 cells (1 × 10^4 cells/well) or RAW264.7 cells ([…]) were incubated in 96T wells for 24 h. Then, HepG2 cells were treated with compounds or Adriamycin for 48 h. In addition, RAW264.7 cells were treated with compounds for 24 h. Then, 0.5% MTT (Sigma, Saint Louis, MO, USA) was added to 20 μL/well for 3.5 h. The supernatant was discarded, and DMSO (150 μL/well) was added to dissolve the purple formazan. Cells were agitated for 15 min at room temperature, and the absorbance at 490 nm was recorded by SpetraMax M2 (Molecular Devices, San Jose, CA, USA).\nRAW264.7 cells (8 × 10^4 cells/well) were incubated in 96T wells with DMEM for 24 h and then treated with compounds and LPS (1 μg/mL) for 24 h; this included the control group and LPS group. Then, the cell supernatant was collected for nitric oxide production assay. Next, 100 uL/well PBS was added to 96T wells, then 0.5% MTT (Sigma, Saint Louis, MO, USA) was added to 20 μL/well for 3.5 h. DMSO (150 μL/well) was added to dissolve the purple formazan. Cells were agitated for 15 min at room temperature, and the absorbance at 490 nm was recorded by SpetraMax M2 (Molecular Devices, San Jose, CA, USA). The NO inhibition rate (%) = (ODLPS group − ODcompound group)/(ODLPS group-ODcontrol group) × 100%. The IC50 value refers to the inhibitory of nitric oxide production of LPS-stimulated RAW264.7 cells. Then, 70 uL of each cell supernatant sample was added into a new 96T plate, and Griess A and Griess B were added separately. Then, the absorbance value at 540 nm was detected and then brought into the standard curve to assay the concentration of NO. The cell survival rate (%) = (ODcompound group − ODblank group)/(ODcontrol group − ODblank group) × 100%. The half concentration of the cell death (CC50) value refers to the concentration of compound 5 when 50% of RAW264.7 cells die. The iNOS inhibitor ([…], L-NMMA) was selected as the positive control. The levels of cytokines (IL-1β, IFN-γ, IL-10, TNF-α, and IL-6) in the cell supernatant were determined using an ELISA kit (Novus Biologicals, Shanghai, China, Lot: 834472, 770118, 772051, 486956, 602865). When the process was conducted according to the manufacturer’s instructions, the absorbance was read at 450 nm/570 nm in a SpectraMax 340PC microplate spectrophotometer (Molecular Devices, San Jose, CA, USA)."}, "Huh-7 cells": {"test_system": "Huh-7 cells", "test": "Apoptosis of Huh-7 cells by flow cytometry (Annexin V/PI)", "from_the_text": "(§1) 2. The anti-proliferation of compound 5 on Huh-7 cells\n(§2) We tested another hepatoma cell line (Huh-7) to validate effect of compound 5. L02 (normal hepatocytes), HepG2 and Hub-7 cells were used to discuss the effect of 5. […]\n(§3) of 5 on Huh-7 cell was (24.49±[…]) μM (Table S1). The morphology and apoptosis of the cells by reversed microscope and flow cytometry, respectively.\n(§4) Second, the expression and phosphorylation of ATP1A1 were detected by Western blot analysis in L02, HepG2 and Huh-7 cells. Compared with L02 group, the expression of ATP1A1 was higher in HepG2 and Huh-7 cells, but there was no significant difference in the phosphorylation of ATP1A1 (Figure […]\n(§5) At last, the effect of 5 on the expression and the phosphorylation of ATP1A1 in Huh-7 cells was […]\n(§6) the phosphorylation of ATP1A1. The result was consistent with that observed in HepG2 cells (Figure […]\n(§7) Table S1 Cell viability of Huh-7 cell treated by compound 5\n(§8) Figure S2 Compound 5 inhibited the proliferation and the level of ATP1A1 protein in Huh-7 cells L5, low concentration of 5 (12.5 μmol-1 ); H5, high concentration of 5 (25 μmol-1). […] (B) Image of cell apoptosis in Huh-7 cells was detected by flow cytometry. The cells were double stained with Annexin V and PI. […] Data are expressed as the mean ± standard deviation (n=3). *p<0.05, **p<0.01, ***p<0.001 vs. the control group. […]"}, "ATP1A1": {"biological_target": "ATP1A1 (Homo sapiens, UniProt P05023)", "test": "Western blot of ATP1A1 in Huh-7 cells", "set-up": "endogenous in cells", "from_the_text": "as §1, §2, §3, §4, §5, §6, §7, §8"}, "RAW264.7 cells": {"test_system": "RAW264.7 cells", "test": "Phagocytosis of macrophages by flow cytometry", "details": "co-cultivation, vs control group", "description": "RAW264.7 cells (1.5 × 10^5 cells/well) and HepG2 cells (4 × 10^5 cells/well) were incubated in a Tissue Culture Plate Insert (LABSELECT, Hangzhou, China) at 37 °C and 95% humidity. Raw264.7 cells were incubated in 12-well plates, and HepG2 cells were incubated in Transwell chambers. After 24 h, the cells were treated with the compound for 48 h. Then, the chamber was discarded, and RAW264.7 cells were washed twice with PBS and a fresh medium. Next, 1.5 mL/well and 100 μL/well FluoSpheresTM carboxylate (Invitrogen, Carlsbad, CA, USA) were added to the medium for 2 h in the dark. Cells were washed twice with PBS, harvested, and then resuspended in 0.5 mL PBS. Finally, the cells were measured by a FACSCalibur (Becton Dickinson, Franklin Lakes, NJ, USA). Data were analyzed using FlowJo software."}},
  "data": [
    {"compound": "C[C@H](O)[C@]1(O)CC[C@@]2(O)[C@]1(C)[C@H](OC(=O)/C=C/c1ccccc1)C[C@@H]1[C@@]3(C)CC[C@H](O[C@H]4C[C@H](O)[C@H](O)[C@@H](C)O4)CC3=CC[C@]12O", "note": "[Compound 5, Cynsaccatol L]", "values": [
      {"measurement": "ROS levels", "setting": "ROS in HepG2 cells", "value": "significantly increased"},
      {"measurement": "CC50 at 24 h", "setting": "[1]", "value": "30.1 ± 3.14", "unit": "µM"},
      {"measurement": "apoptosis of Huh-7 cells", "setting": "Huh-7 cells", "value": "induce apoptosis of Huh-7 cells"},
      {"measurement": "level of ATP1A1 in Huh-7", "setting": "ATP1A1", "value": "reduced"},
      {"measurement": "phagocytic ability of macrophages", "setting": "RAW264.7 cells", "value": "significantly upregulated"}
    ]}
  ]
}
